Source: patent US11446276B2, “Extreme low dose THC as a therapeutic and prophylactic agent for Alzheimer's disease” (University of South Florida, priority 2015, dated 2022)
Entries after “also recorded” stand apart in the source; their conditions may differ.

What was measured:
Aβ1-40 peptide = molecular target: T1, Aβ1-40 peptide (Homo sapiens, UniProt P05067); assay: ThT assay of Aβ aggregation; type: biochemical; details: THC 0.25-250 nM; Aβ1-40 1 μM; FIG. 3A
T1 construct: purchased Biomer Technology, Pleasanton, Calif
Experimental: A ThT assay was conducted to examine the interaction between THC and Aβ, as ThT incorporates into Aβ when the amyloid protein aggregates, indicating whether there is a direct interaction between THC and Aβ aggregation.
Hexafluoroisopropanol-(HFIP) pretreated Aβ1-40 peptide (Biomer Technology, Pleasanton, Calif.). THC solution was prepared at concentration of 250 nM, 25 nM, 2.5 nM, and 0.25 nM in thioflavin T (ThT) (1.6 μg/mL dissolved in 20 mM Tris-HCL). The THC-ThT was added into black 96 well plates. Unaggregated Aβ peptide solution was thawed, diluted, and immediately added to wells, making the final concentration of Aβ1-40 at 1 μM. Control groups were setup as: 1) aggregation control; 2) control with ThT buffer only; and 3) Tris-HCl buffer only. Plate was mixed and fluorescence was read at 482 nm with excitation 440 nm with Biotek All-in-One plate reader. Fluorescence was screened for 2 hours with 5-minute intervals.

GSK-3β = assay: Western blot of GSK-3β in N2a/AβPPswe cells; type: cell-based
Experimental: Next, the effects of THC on amyloid protein processing were analyzed by testing total GSK-30 and phosphorylated GSK-3β (pGSK-3β) levels. β-actin, a housekeeping gene, was used as a control to indicate that GSK-3β was expressed at a constant rate and that the changes in intensity were not related to the change in expression amount.
The cellular effects of THC were next analyzed. As Aβ processing is mediated by GSK-3β, protein levels were tested. N2a/AβPPswe cells were treated with 2.5 nM or 0.25 nM of THC, as provided in Example 1, and N2a/AβPPswe cell lysate were collected, quantified, and aliquoted.
N2a/AβPPswe cells were cultured as provided above and Δ9-THC added at 0.25 nM and 2.5 nM, as provided in Example 1. After THC treatment for 48 hours, N2a/AβPPswe cell lysate were collected, quantified, and aliquoted. Using 12% Tris-Glycine gel system (Bio-Rad Laboratories, Inc., Hercules, Calif.), protein were separated by electrophoresis and semi-dry transferred to a polyvinylidene difluoride (PVDF) membrane. GSK-3β (Cat #9315, Cell Signaling Technology, Inc. Danvers, Mass.) and β-actin (Cat #A54441, Sigma Aldrich, Merck KGaA; Darmstadt, Germany) antibodies were used as primary antibody. After adding secondary antibody (Goat-anti-Rabbit-HRP Cat #4050-05, Southern Biotech, part of Thermo Fisher Scientific, Waltham, Mass.; Anti-mouse IgG-HRP Cat #A9044, Sigma Aldrich, Merck KGaA; Darmstadt, Germany), the membranes were exposed using ECL substrate (Pierce). After membrane was developed, film with bands were scanned, followed by analysis of gel-quantification software (QuantityOne, from Bio-rad).
The effects of combining THC with other compounds was analyzed using a combination of THC and melatonin. Cells were treated with 2.5 nM of THC and 10 μM or 1 μM melatonin, using the methods discussed above, and N2a/AβPPswe cell lysate collected, quantified, and aliquoted. […] After membrane was developed, film with bands were scanned, followed by analysis of gel-quantification software (QuantityOne, from Biorad).

Aβ peptide = Aβ peptide (Homo sapiens, UniProt P05067); assay: Western blot of aggregated Aβ peptide / Aβ monomer; type: biochemical; details: 100 nM, 10 nM, 1 nM THC; FIGS. 4A, 4B
Experimental: FIG. 4A is a western blot showing aggregated Aβ peptide with and without THC treatment.
FIG. 4B is a graph showing the relative quantity of Aβ monomer in the anti-aggregation study described in FIG. 4A. Cells were untreated for the aggregation control or treated with and 100 nM THC, 10 nM THC, and 1 nM THC.
In untreated samples, Aβ peptide increased in intensity for the first 20 minutes, followed by a plateauing of fluorescence at around 30 minutes, at which time the intensity remained constant for the duration of the study. […] Therefore, THC's direct interaction with the Aβ peptide will not dampen an immune response to clear the Aβ peptide. Further analysis with western blot was performed measuring the anti-aggregation properties of THC with Aβ peptide.

[1] = molecular target: acetylcholinesterase (AChE) (Homo sapiens, UniProt P22303); details: THC 50 μM; cited from earlier work
phosphorylated GSK-3β = assay: Western blot of phosphorylated GSK-3β in N2a/AβPPswe cells; type: cell-based; details: 25 nM, 2.5 nM, 0.25 nM THC; 36 hours; FIGS. 5D, 10B
Experimental: Cells were plated in 6 well plate overnight with 25 nM THC, 2.5 nM THC, or 0.25 nM THC added into each designated wells in duplicate. Cells were lysed after 36 hours incubation. Proteins were loaded onto SDS-page gel and then blotted with each antibody after transfer onto PVDF membrane.
Using 12% Tris-Glycine gel system (Bio-rad), proteins were separated by electrophoresis and semi-dry transferred to a PVDF membrane. GSK-3β and β-actin antibodies were used as primary antibody. After adding secondary antibody, the membranes were exposed using ECL substrate (Pierce). After membrane was developed, film with bands were scanned, followed by analysis of gel-quantification software (QuantityOne, from Biorad).

Tau = assay: Western blot of Tau in N2a/AβPPswe cells; type: cell-based
Experimental: FIG. 6C is a western blot assay showing Tau and phosphorylated Tau (pTau) levels in N2a/AβPPswe treated with 25 nM THC, 2.5 nM THC, or 0.25 nM THC. Anti-Tau, anti-pTau and β-actin antibodies were used to detect Tau and pTau, and β-actin that served as the protein loading control.
FIG. 11C is a western blot assay showing Tau and phosphorylated Tau levels in N2a/AβPPswe treated as follows: untreated (CTRL, control), or 10^−5 M Melatonin with 2.5 nM THC, 10^−6 M Melatonin with 2.5 nM THC. Anti-Tau and anti-pTau antibodies were used to […] that served as the protein loading control.
Amyloid processing and ancillary amyloid protein effects were next tested. After stripping the Western, and restaining for AβPP, using anti-Tau (Chuanhai Cao, Tampa, Fla.), anti-pTau (Chuanhai Cao, Tampa, Fla.), and anti-β-actin antibodies (Cat #A54441, Sigma Aldrich, Merck KGaA; Darmstadt, Germany)) were used to detect Tau levels against a protein loading control (β-actin). After data was collected the membrane was stripped using a western blot striping buffer (Cat #21059, Thermo Fisher Scientific, Waltham, Mass.) and stained for AβPP using 6E10 antibody (Cat #803002, BioLegend, Inc., San Diego, Calif.). Anti-mouse secondary horseradish peroxidase (Cat #A9044, Sigma Aldrich, Merck KGaA; Darmstadt, Germany) secondary antibodies were used.

T1 sequence (P05067 672-711): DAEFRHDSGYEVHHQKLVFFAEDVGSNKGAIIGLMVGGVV
Aβ peptide, sequence (P05067 672-711 limits assumed): as the sequence (P05067 672-711) above
acetylcholinesterase (AChE), sequence (P22303 32-614): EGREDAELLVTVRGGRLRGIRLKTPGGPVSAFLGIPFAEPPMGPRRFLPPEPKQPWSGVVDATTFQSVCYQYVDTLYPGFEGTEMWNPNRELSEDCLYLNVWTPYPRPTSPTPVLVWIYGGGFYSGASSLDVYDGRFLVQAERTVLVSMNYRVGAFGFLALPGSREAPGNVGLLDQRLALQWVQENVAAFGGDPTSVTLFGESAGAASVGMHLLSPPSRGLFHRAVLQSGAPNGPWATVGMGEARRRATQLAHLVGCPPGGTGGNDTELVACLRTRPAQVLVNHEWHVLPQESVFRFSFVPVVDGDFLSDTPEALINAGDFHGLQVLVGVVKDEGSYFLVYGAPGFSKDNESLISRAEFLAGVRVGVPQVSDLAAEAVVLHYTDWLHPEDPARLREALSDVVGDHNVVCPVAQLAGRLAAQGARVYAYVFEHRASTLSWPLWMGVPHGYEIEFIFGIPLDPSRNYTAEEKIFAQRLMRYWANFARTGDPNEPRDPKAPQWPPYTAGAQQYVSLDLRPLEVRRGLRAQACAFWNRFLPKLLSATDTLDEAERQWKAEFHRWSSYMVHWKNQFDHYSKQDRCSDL

SMILES: CCCCCc1cc(O)c2c(c1)OC(C)(C)[C@@H]1CCC(C)=C[C@@H]21 [THC, Δ9-tetrahydrocannabinol]
- Thioflavin T fluorescence intensity / Aβ aggregation (Aβ1-40 peptide): lowers Aβ aggregation; also recorded: dose-dependent decrease; also recorded: inhibits Aβ40 aggregation
- GSK-3β protein levels (ratio to β-actin) (GSK-3β; THC 0.25 nM and 2.5 nM, 48 hours, FIGS. 5A, 5B): dose-dependent decrease; also recorded: decreases the GSK-3β protein levels
- GSK-3 levels relative to the control (GSK-3β; lowest level of THC from the tests): about half
- Decrease of GSK-3β protein levels over the untreated control (GSK-3β; ultra-low doses of THC, FIGS. 5A, 5B): ≤ 50%
- Relative quantity of Aβ monomer (Aβ peptide): increases monomeric Aβ; also recorded: higher relative % of Aβ monomer
- Inhibition of AChE [1]: competitively inhibits
- Phosphorylated GSK-3β, THC alone (phosphorylated GSK-3β): decreases the phosphorylation of GSK-3β; also recorded: decrease of phosphorylated GSK-3β; also recorded: decreases phosphorylated GSK-3β
- Tau level among THC concentrations (Tau; 2.5 nM THC, FIGS. 6C, 7): lowest level of Tau
- Tau protein levels (standardized to β-actin), THC alone (Tau; 25 nM, 2.5 nM, 0.25 nM THC, FIG. 7): lowers the production of Tau; also recorded: reduces Tau protein levels
